Entries after “also recorded” stand apart in the source; their conditions may differ. Where two headings read alike, the source gives them in different places. Values belong to the molecule of their own block, whether it stands above or below them.
Assays:
NF-κB = NF-κB DNA binding activity (electrophoretic / gel mobility shift assay); assay type: cell-based, mouse
Procedure: Splenic T cells cultured in the presence of IL-12 and anti-CD3 antibody for 4 days were starved for 3 hours and then stimulated with IL-18. Nuclei extracted from the stimulated cells were analyzed by a gel mobility shift assay using a specific probe containing NF-κB binding site.
NF-κB activation in response to LPS or PGN was also investigated. Macrophages of various kinds of mouse were stimulated with said LPS or PGN, then nuclear extracts from the macrophages were purified and incubated with a probe specific to DNA binding site of NF-κB, and visualized by electrophoretic mobility shift assay as described previously (Immunity 9, 143–150, 1998). The results are shown in FIGS. 21C and D. Arrows in FIGS. 21C and D indicate the position of a complex comprised of NF-κB and the specific probe, and arrowheads indicate the position of specific probe only.
(§1) In order to examine whether a lipoprotein/lipopeptide activates intracellular signaling molecules with the results of example 16, peritoneal macrophages of the 4 kinds of mouse (1×10^6) were stimulated with 0.3 ng/ml of R-MALP-2 for 10 minutes, and in vitro kinase assay (Auto in FIG. 25A), Western blot analysis (WB in FIG. 25A), electrophoretic mobility shift assay (FIG. 25B) were conducted with anti-IRAK antibody as in example 12. In addition, in vitro kinase assay (Auto in FIG. 25C) and Western blot analysis (WB in FIG. 25C) with anti-JNK1 antibody were also conducted.

JNK = JNK activation (in vitro kinase assay); assay type: cell-based, mouse
Procedure: In addition to induction of NF-κB activation, IL-1 is also known to activate c-Jun N-terminal kinase (JNK). To test whether IL-18 induces JNK activation, an in vitro kinase assay was carried out using GST-c-Jun-fusion protein as a […]. […] IL-18-induced NF-κB and JNK activation was impaired in MyD88-deficient mice.
as §1

thymocytes = experiment: Thymocyte (T cell) proliferation with IL-1 costimulation ([3H]thymidine); assay type: cell-based, mouse; conditions: 100 U/ml with PHA, ConA or IL-2, 72 hours
From the text: Proliferation of T cells were examined by measuring [^3H] amount of [^3H] thymidine taken into the cells.

mice = experiment: IL-1-induced acute phase protein mRNA in liver and serum TNF-α/IL-6 after intravenous injection; assay type: in vivo, mouse; conditions: 1 μg intravenously, 2 hours
Procedure: MyD88 knockout mice of the present invention were intravenously injected with 1 μg of […] (Genzyme), and 2 hours later liver and sera were taken. Total RNA was extracted from the liver using Trizol reagent (GIBCO). This RNA (10 μg) was electrophoresed and transferred to a nylon membrane, then Northern blot analysis was conducted with ^32P-labelled cDNA for acute phase proteins such as serum amyloid A (SAA-I), serum amyloid P(SAP), and haptoglobin (HP).
Because IL-1 induces production of […], increase of TNF-α and IL-6 concentrations in serum taken from MyD88 knockout mice of the present invention and wild-type littermates by the above-stated method were measured by ELISA.

peritoneal macrophages [1] = experiment: TNF-α production by stimulated peritoneal macrophages (ELISA); assay type: cell-based, mouse
peritoneal macrophages [2] = experiment: IL-6 (ELISA) and NO2^− (Greiss method) production by peritoneal macrophages; assay type: cell-based, mouse; conditions: for production of IL-6: 24 hours; for production of NO2^−: in the presence of IFN-γ (30 unit/ml)
Procedure: Each of TLR2 knockout (TLR2−/−), TLR4 knockout (TLR4−/−) and wild-type (wild-type) mice were intraperitoneally injected with 2 ml of 4% thioglycollate medium (DIFCO). Three days later, peritoneal exudate cells were isolated from the peritoneal cavity of each mouse. These cells were cultured in RPMI1640 medium (GIBCO) supplemented with 10% fetal bovine serum (GIBCO) for 2 hours at 37° C. and washed with ice-cold Hank's buffered salt solution (HBSS; GIBCO) to remove nonadherent cells. Adherent cells were used as peritoneal macrophages for following experiments.
Synthetic lipid A, which was soluble in endotoxin-free water and containing 0.025% of triethylamine, was used as said synthetic lipid A. After the culture, production amounts of IL-6 (FIG. 17A), TNF-α (FIG. 17B) and NO2^− (FIG. 17C) in culture supernatants were measured. Production amount of IL-6 was measured by enzyme-linked immunosorbent assay (ELISA; ENDOGEN), and that of TNF-α was measured by ELSIA, according to manufacturer (Genzyme)'s instructions, and that of NO2^31 was measured by the Greiss method using NO2/NO3 Assay Kit (Dojindo Laboratories).

YAC-1 targeting cells = experiment: NK lytic activity against 51Cr-labelled YAC-1 target cells; assay type: cell-based, mouse; conditions: 24 hours
Procedure: It has been well known that IL-18 enhances lytic activity of NK cells. Splenic […] from MyD88 knockout mice of the present invention and wild-type littermates were cultured in the presence or absence of 20 ng/ml of IL-18 (Hayashibara Biochemical Laboratories, Inc.) for 24 hours with ^51Cr-labelled mouse lymphoma cells (hereinafter “YAC-1”) targeting cells. 4 hours later, released ^51Cr in supernatants were counted by a gamma counter.

splenic T cells = experiment: IFN-γ production by splenic cells / splenic T cells (ELISA); assay type: cell-based, mouse; conditions: 20 ng/ml, 24 hours
Procedure: Further, splenic B cells of MyD88 knockout mice of the present invention and their wild-type littermates were stimulated by 20 ng/ml of IL-18 and cultured for 24 hours in vitro, then production of IFN-γ in culture supernatants was measured by ELISA.
Splenic T cells of MyD88 knockout mice of the present invention and their wild-type littermates, which were purified to 95% or over, were cultured on anti-CD3 antibody (20 μg/ml)(PharMingen)-coated plates in the presence of 2 ng/ml IL-12. 4 days after the onset of culture, cells were harvested and washed with Hanks' balanced salt solution. The washed cells (2×10^5) were stimulated and cultured again on anti-CD3 antibody (20 μg/ml)-coated 96-well plates for 24 hours with 20 ng/ml of IL-18 or 2 ng/ml of IL-12. Concentration of IFNγ in culture supernatants was determined by ELISA and compared.
MyD88 knockout mice of the present invention and their wild-type littermates were intraperitoneally injected with 500 μg of heat-killed Propionibacterium acnes (P. acnes). […] Concentration of IFN-γ in culture supernatants was determined by ELISA. […] 14 days after injection, T cells were purified from spleen, then cultured and stimulated for 24 hours, as described above, subsequently concentration of IFN-γ was measured.

AP-1 = experiment: AP-1-dependent reporter activity after IL-18 treatment; assay type: cell-based; conditions: stimulation with IL-18
Procedure: Next, it was examined whether the dominant negative MyD88 mutant blocked IL-18-induced NF-κB activation as well. COS-7 cells were transiently transfected with MyD88 (amino acid 152–296) expression vector together with NF-κB-dependent luciferase reporter gene, and luciferase activity after IL-18 treatment was measured. Coexpression of MyD88 blocked IL-18-induced activation almost completely (see FIG. 7).
Because IL-18 activates AP-1-dependent gene information, whether MyD88 (amino acid 152–296) also acted as a dominant negative mutant of IL-18-induced AP-1 activation was investigated. Stimulation with IL-18-induced an approximately 3- to 4-fold increase in AP-1 activity, and this activation was blocked by coexpression of MyD88 (amino acid 152–296) (see FIG. 7).

peritoneal macrophages [3] = experiment: I-A^b expression in peritoneal macrophages after intraperitoneal IFN-γ; assay type: in vivo, mouse; conditions: 5000 U intraperitoneally, three days after injection
From the text: Each of wild-type, MyD88- and TLR4-deficient mice were intraperitoneally injected with 5000 U of IFN-γ (Genzyme) or PBS. Three days after injection, peritoneal macrophages were collected and stained by combining I-A^b molecule on the surface of the macrophage membranes and FITC-conjugated anti-mouse I-A^b antibody, then analyzed by fluorescence-activated cell sorter Calibur using CELLQuest software (see FIG. 9C).

splenic B cells = experiment: MHC class II (I-A^b) expression on splenic B cells (flow cytometry); assay type: cell-based, mouse; conditions: 48 hours
Procedure: The expression of major histocompatibility complex (MHC) class II (I-A^b molecule) on the surface of splenic B cells in response to Re-595LPS was examined by flow cytometry. Splenic B cells (1×10^6) from each of the wild-type, MyD88- and TLR4-deficient mice were cultured for 48 hours in the presence of various concentrations (0, 0.01, 0.1, 1, 10 or 100 μg/ml) of LPS. After the culture, the cells were collected and then stained by combining I-A^b molecule on the surface of the cells and FITC-labelled antibody which is constructed by combining phycoerythrin (PE; PharMingen)-conjugated anti-B220 antibody or biotinylated anti-mouse I-A^b antibody (PharMingen) and fluorescein […] (FITC; PharMingen)-conjugated streptavidin. The stained cells were analyzed on fluorescence-activated cell sorter Calibur (FACS Calibur) using CELLQuest software (Becton Dickinson).
Next, Splenic B cells (1×10^6) from each of the wild-type, MyD88- and TLR4-deficient mice were cultured for 48 hours in the presence or absence of 100 U/ml of IL-4, and then stimulated. Subsequently, the cells were stained by combining I-A^b molecule on the surface of the splenic B cells and PE-conjugated anti-B220 antibody or FITC-conjugated anti-mouse I-A^b antibody. The cell proliferation was measured on fluorescence-activated cell sorter Calibur using CELLQuest software (see FIG. 9B).
In addition, the expression of major histocompatibility complex (MHC) class II (I-A^b) on the surface of B cells in response to Re-595 LPS was examined by flow cytometry. Splenic B cells (1×10^5) of each of wild-type, TLR2 knockout (2−/−) and TLR4 knockout (4−/−) mice were isolated and cultured for 48 hours in 96-well plates with various concentrations (0, 10^1, 10^2, 10^3, 10^4 or 10^5 ng/ml) of LPS or 100 U/ml of IL-4. […] The stained cells were analyzed on fluorescence-activated cell sorter Calibur (FACS Calibur) using CELLQuest software (Becton Dickinson) (FIG. 18B).

[4] = nuclear extracts of wild-type cells
[5] = peritoneal macrophages of TLR2 knockout mice
[6] = peritoneal macrophages of wild-type mice

JNK activation (JNK; MyD88-deficient cells): normal activation of JNK was observed
Molecule: TNF-α
NF-κB DNA binding activity / NF-κB activation (NF-κB; nuclear extracts of MyD88-deficient cells): almost the same levels of NF-κB DNA binding activity
NF-κB DNA binding activity / NF-κB activation (NF-κB; [4]): almost the same levels of NF-κB DNA binding activity

Molecule: IL-1β: IL-1β (Genzyme), cytokine
proliferation of thymocytes (thymocytes; MyD88 knockout mice): almost no enhanced proliferation
proliferation of thymocytes (thymocytes; wild-type littermates): displayed enhanced proliferation
IL-6 concentration in serum (mice; MyD88 knockout mice): neither TNF-α nor IL-6 concentration increased
TNF-α concentration in serum (mice; MyD88 knockout mice): neither TNF-α nor IL-6 concentration increased
increase of mRNA expression of acute phase proteins (SAA-I, SAP, HP) in liver (mice; MyD88 knockout mice): not observed in MyD88 knockout mice
increase of mRNA expression of acute phase proteins (SAA-I, SAP, HP) in liver (mice; wild-type littermates): increase of induction was observed in wild-type mice
IL-6 concentration in serum (mice; wild-type mice): TNF-α and IL-6 concentrations increased
TNF-α concentration in serum (mice; wild-type mice): TNF-α and IL-6 concentrations increased

Molecule: lipid A
production of TNF-α (peritoneal macrophages [1]): produced IL-6 and TNF-α
production of TNF-α (peritoneal macrophages [1]; peritoneal macrophages of TLR4-deficient mice, 24 hours): produced neither IL-6 nor TNF-α
production of IL-6 (peritoneal macrophages [2]; [5]): produced IL-6 and TNF-α
production of NO2^− (peritoneal macrophages [2]; [5]): production of NO2^− was confirmed
production of IL-6 (peritoneal macrophages [2]; peritoneal macrophages of TLR4 knockout mice): produced neither IL-6 nor TNF-α
production of IL-6 (peritoneal macrophages [2]; [6]): produced IL-6 and TNF-α
production of NO2^− (peritoneal macrophages [2]; [6]): production of NO2^− was confirmed

JNK activation (JNK; Th1-developing cells of wild-type mice): induced JNK activation
Molecule: IL-18: IL-18 (Hayashibara Biochemical Laboratories, Inc.), cytokine
NF-κB DNA binding activity / NF-κB activation (NF-κB; [4]): detected in the nuclear extracts from wild-type cells
JNK activation (JNK; MyD88-deficient cells): IL-18-induced JNK activation was not observed
lytic activity to YAC-1 targeting cells (YAC-1 targeting cells; splenic cells of MyD88 knockout mice): not enhanced
lytic activity to YAC-1 targeting cells (YAC-1 targeting cells; splenic cells of wild-type mice): dramatically enhanced
production of IFN-γ (splenic T cells; splenic cells / T cells of MyD88 knockout mice): production of IFN-γ was not observed; also recorded: cannot enhance IL-18-responsive production of IFNγ; also recorded: could not be enhanced
production of IFN-γ (splenic T cells; splenic cells / T cells of wild-type mice): production of IFN-γ was induced; also recorded: high level of IFN-γ production in response to IL-18 was observed
increase in AP-1 activity (AP-1): 3- to 4 fold

B1: IFN-γ: IFN-γ (Genzyme), cytokine (protein, UniProt P01579 24-161, looked up)
Interferon gamma: QDPYVKEAENLKKYFNAGHSDVADNGTLFLGILKNWKEESDRKIMQSQIVSFYFKLFKNFKDDQSIQKSVETIKEDMNVKFFNSNKKKRDDFEKLTNYSVTDLNVQRKAIHELIQVMAELSPAAKTGKRKRSQMLFRG
expression of I-A^b molecule in peritoneal macrophages (peritoneal macrophages [3]): comparative among wild-type, MyD88- and TLR4-deficient mice

B2: IL-4: IL-4 (Genzyme), cytokine (protein, UniProt P05112 25-153, looked up)
Interleukin-4: HKCDITLQEIIKTLNSLTEQKTLCTELTVTDIFAASKNTTEKETFCRAATVLRQFYSHHEKDTRCLGATAQQFHRHKQLIRFLKRLDRNLWGLAGLNSCPVKEANQSTLENFLERLKTIMREKYSKCSS
expression of I-A^b molecule (splenic B cells; splenic B cells of MyD88-deficient mice): showed same reaction as those of wild-type mice
expression of I-A^b molecule (splenic B cells; splenic B cells of TLR2 knockout mice): normal expression of I-A^b molecule
expression of I-A^b molecule (splenic B cells; splenic B cells of TLR4-deficient mice): showed same reaction as those of wild-type mice; also recorded: normal expression of I-A^b molecule
